The text below walks through data of patent publication US20250145635A1, “COMPOUND CONTAINING BIS(AZANYLYLIDENE) SULFONYL STRUCTURE AND USE THEREOF IN MEDICINE” (SCINNOHUB PHARMACEUTICAL CO., LTD., priority 2021, published 2025).

In the experiment the target is recombinant human PKR enzyme (Homo sapiens (Human), UniProt P30613). In words: Pyruvate kinase (PKR) activity experiment. The note with it: activation of recombinant human PKR enzyme. It is filed as biochemical. How it is done: • 1). A recombinant human PKR enzyme solution was formulated at a concentration of 60 ng/well (a 20 μL reaction system), and 5 μL of the solution was added into each well of a black transparent bottom 384-well plate. • 2). Compound solutions were formulated at different concentrations, with the final concentrations of 1000/300/100 nM (containing 1% DMSO). Each 5 μL of the compound solution was added into the plate in item 3.1 and mixed well. The plate was incubated at room temperature for 10 min. • 3). A reaction system was formulated according to the instructions of a kit (as shown in the table below), and 10 μL of the reaction system was added into each well of the 384-well plate, and mixed uniformly with the solution in item 3.2.
• 4). The 384-well plate was placed on a microplate reader to detect the fluorescence value at 540/590 nm, where the value was read every 2 minutes and the detection was conducted continuously for 1 hour. • 5). The Slope value within the detection time was calculated, and the 0.1% DMSO well was used as a control well to calculate a compound activation rate.
[formula] • 6). Fitting dose-effect curve
With the log value of the compound concentration as the X axis and the percentage activation rate as the Y axis, a dose-effect curve was fitted with the log(agonist) vs. response-variable slope of the analysis software GraphPad Prism 5, and the AC50 value of the activity of each compound against PKR was obtained.

Structures are written as SMILES.

Sequence of recombinant human PKR enzyme (P30613 whole entry): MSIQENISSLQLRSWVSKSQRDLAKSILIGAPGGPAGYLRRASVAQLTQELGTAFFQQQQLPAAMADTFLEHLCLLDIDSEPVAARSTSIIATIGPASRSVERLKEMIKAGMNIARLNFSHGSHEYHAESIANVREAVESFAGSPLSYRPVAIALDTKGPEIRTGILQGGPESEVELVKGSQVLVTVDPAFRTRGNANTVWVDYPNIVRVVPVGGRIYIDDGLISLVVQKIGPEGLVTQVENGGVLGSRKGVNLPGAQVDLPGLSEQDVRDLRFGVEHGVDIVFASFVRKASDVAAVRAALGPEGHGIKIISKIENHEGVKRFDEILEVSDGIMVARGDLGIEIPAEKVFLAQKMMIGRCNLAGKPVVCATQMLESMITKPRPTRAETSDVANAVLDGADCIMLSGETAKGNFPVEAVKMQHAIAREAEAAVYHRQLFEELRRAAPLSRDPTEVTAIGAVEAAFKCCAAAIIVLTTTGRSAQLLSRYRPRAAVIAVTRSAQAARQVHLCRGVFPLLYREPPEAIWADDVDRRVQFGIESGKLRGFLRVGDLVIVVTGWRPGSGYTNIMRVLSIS

As to `O=C([C@H](CO)c1ccccc1)N1CC(=C2CN(S(=O)(=O)c3ccc(OC(F)F)cc3)C2)C1` [Compound 7, (S)-1-(1′-((4-(difluoromethoxy)phenyl)sulfonyl)-1′,4′-dihydro-2H,2′H-[3,3′-diazetidinylidene]-1(4H)-yl)-3-hydroxy-2-phenylpropan-1-one], the AC50 fell in the range of 101 to 300 nM. With `O=C([C@H](CO)c1ccccc1)N1CC(=C2CN(S(=O)(=O)c3ccc(OC(F)(F)F)cc3)C2)C1` [Compound 9, (S)-3-hydroxy-2-phenyl-1-(1′-((4-(trifluoromethoxy)phenyl)sulfonyl)-1′,4′-dihydro-2H,2′H-[3,3′-diazetidinylidene]-1(4H)-yl)propan-1-one], the AC50 was 101 to 300 nM. On to `O=C([C@H](CO)c1ccccc1)N1CC(=C2CN(S(=O)(=O)c3ccc(F)cc3)C2)C1` [Compound 10], for which the AC50 is 101 to 300 nM.

In the case of `O=C([C@H](CO)c1ccccc1)N1CC(=C2CN(S(=O)(=O)c3ccc(OC(F)F)c(F)c3)C2)C1` [Compound 11], the AC50 lay within 101 to 300 nM.

For `O=C([C@H](CO)c1ccccc1)N1CC(=C2CN(S(=O)(=O)c3ccc4c(c3)NCCO4)C2)C1` [Compound 12, (S)-1-(1′-((3,4-dihydro-2H-benzo[b][1,4]oxazin-6-yl)sulfonyl)-1′,4′-dihydro-2H,2′H-[3,3′-diazetidinylidene]-1(4H)-yl)-3-hydroxy-2-phenylpropan-1-one], the AC50 was < 100 nM. Under `O=C(C(O)c1ccc2c(c1)NCCO2)N1CC(=C2CN(S(=O)(=O)c3ccc(OC(F)F)cc3)C2)C1` (stereo not drawn) [Compound 13, 1-(1′-((4-(difluoromethoxy)phenyl)sulfonyl)-1′,4′-dihydro-2H,2′H-[3,3′-diazetidinylidene]-1(4H)-yl)-2-(3,4-dihydro-2H-benzo[b][1,4]oxazin-6-yl)-2-hydroxyethan-1-one] stands < 100 nM.

As to `CNCC(C(=O)N1CC(=C2CN(S(=O)(=O)c3ccc4c(c3)OCCO4)C2)C1)c1cccc(OC)c1` (stereo not drawn) [Compound 15, 1-(1′-((2,3-dihydrobenzo[b][1,4]dioxin-6-yl)sulfonyl)-1′,4′-dihydro-2H,2′H-[3,3′-diazetidinylidene]-1(4H)-yl)-2-(3-methoxyphenyl)-3-(methylamino)propan-1-one], the AC50 is 300 to 1000 nM. Take `O=C(C(CO)c1ccc(F)cc1)N1CC(=C2CN(S(=O)(=O)c3ccc(OC(F)F)cc3)C2)C1` (stereo not drawn) [Compound 16, 1-(1′-((4-(difluoromethoxy)phenyl)sulfonyl)-1′,4′-dihydro-2H,2′H-[3,3′-diazetidinylidene]-1(4H)-yl)-2-(4-fluorophenyl)-3-hydroxypropan-1-one]: the AC50 was in the range of 101 to 300 nM. Under `CC(C)(O)C(C(=O)N1CC(=C2CN(S(=O)(=O)c3ccc(OC(F)F)cc3)C2)C1)c1ccccc1` (stereo not drawn) [Compound 17, 1-(1′-((4-(difluoromethoxy)phenyl)sulfonyl)-1′,4′-dihydro-2H,2′H-[3,3′-diazetidinylidene]-1(4H)-yl)-3-hydroxy-3-methyl-2-phenylbutan-1-one] stands 300 to 1000 nM; under `O=C([C@H](CO)c1ccccc1)N1CC(=C2CN(S(=O)(=O)c3cc(F)c4c(c3)OCCO4)C2)C1` [Compound 20, (S)-1-(1′-((8-fluoro-2,3-dihydrobenzo[b][1,4]dioxin-6-yl)sulfonyl)-1′,4′-dihydro-2H,2′H-[3,3′-diazetidinylidene]-1(4H)-yl)-3-hydroxy-2-phenylpropan-1-one], 101 to 300 nM. Turning to `NC(C(=O)N1CC(=C2CN(S(=O)(=O)c3ccc(OC(F)F)cc3)C2)C1)c1ccc(F)cc1` (stereo not drawn) [Compound 22, 2-amino-1-(1′-((4-(difluoromethoxy)phenyl)sulfonyl)-1′,4′-dihydro-2H,2′H-[3,3′-diazetidinylidene]-1(4H)-yl)-2-(4-fluorophenyl)ethan-1-one], the concentration at half-maximal activity (AC50) was 300 to 1000 nM. To `NC(C(=O)N1CC(=C2CN(S(=O)(=O)c3ccc(OC(F)F)cc3)C2)C1)c1cccc(C(F)(F)F)c1` (stereo not drawn) [Compound 23, 2-amino-1-(1′-((4-(difluoromethoxy)phenyl)sulfonyl)-1′,4′-dihydro-2H,2′H-[3,3′-diazetidinylidene]-1(4H)-yl)-2-(3-(trifluoromethyl)phenyl)ethan-1-one] belongs 300 to 1000 nM. To `Cc1nc2c(C(O)C(=O)N3CC(=C4CN(S(=O)(=O)c5ccc(OC(F)F)cc5)C4)C3)cccc2s1` (stereo not drawn) [Compound 24, 1-(1′-((4-(difluoromethoxy)phenyl)sulfonyl)-1′,4′-dihydro-2H,2′H-[3,3′-diazetidinylidene]-1(4H)-yl)-2-hydroxy-2-(2-methylbenzo[d]thiazol-4-yl)ethan-1-one] belongs 300 to 1000 nM.

As to `O=C([C@H](CO)c1ccc(F)cc1)N1CC(=C2CN(S(=O)(=O)c3ccc4ncsc4c3)C2)C1` [Compound 25, (S)-1-(1′-(benzo[d]thiazol-6-ylsulfonyl)-1′,4′-dihydro-2H,2′H-[3,3′-diazetidinylidene]-1(4H)-yl)-2-(4-fluorophenyl)-3-hydroxypropan-1-one], the concentration at half-maximal activity (AC50) was < 100 nM. Under `O=C([C@H](CO)c1ccccc1)N1CC(=C2CN(S(=O)(=O)c3ccc(-c4ncco4)c(F)c3)C2)C1` [Compound 27, (S)-1-(1′-((3-fluoro-4-(oxazol-2-yl)phenyl)sulfonyl)-1′,4′-dihydro-2H,2′H-[3,3′-diazetidinylidene]-1(4H)-yl)-3-hydroxy-2-phenylpropan-1-one] stands 300 to 1000 nM. Under `CNCC(C(=O)N1CC(=C2CN(S(=O)(=O)c3ccc4c(c3)OCCO4)C2)C1)c1ccc(F)c(Cl)c1OC` (stereo not drawn) [Compound 28] stands 300 to 1000 nM; under `O=C([C@H](CO)c1ccc(F)cc1)N1CC(=C2CN(S(=O)(=O)c3ccc4c(c3)OCCO4)C2)C1` [Compound 30, (S)-1-(1′-((2,3-dihydrobenzo[b][1,4]dioxin-6-yl)sulfonyl)-1′,4′-dihydro-2H,2′H—[3,3′-diazetidinylidene]-1(4H)-yl)-2-(4-fluorophenyl)-3-hydroxypropan-1-one], < 100 nM; under `O=C([C@@H](CO)c1ccc(F)cc1)N1CC(=C2CN(S(=O)(=O)c3ccc4c(c3)OCCO4)C2)C1` [Compound 31, (R)-1-(1′-((2,3-dihydrobenzo[b][1,4]dioxin-6-yl)sulfonyl)-1′,4′-dihydro-2H,2′H-[3,3′-diazetidinylidene]-1(4H)-yl)-2-(4-fluorophenyl)-3-hydroxypropan-1-one], 300 to 1000 nM. To `O=C(C(CO)c1ccc2ccccc2c1)N1CC(=C2CN(S(=O)(=O)c3ccc4ncsc4c3)C2)C1` (stereo not drawn) [Compound 32, 1-(1′-(benzo[d]thiazol-6-ylsulfonyl)-1′,4′-dihydro-2H,2′H-[3,3′-diazetidinylidene]-1(4H)-yl)-3-hydroxy-2-(naphthalene-2-yl)propan-1-one] belongs < 100 nM; to `CN1CCN(c2cccc(C(CO)C(=O)N3CC(=C4CN(S(=O)(=O)c5ccc6ncsc6c5)C4)C3)c2)CC1` (stereo not drawn) [Compound 33], 300 to 1000 nM; to `Cn1cc(-c2ccc(C(CO)C(=O)N3CC(=C4CN(S(=O)(=O)c5ccc6ncsc6c5)C4)C3)cc2)cn1` (stereo not drawn) [Compound 34, 1-(1′-(benzo[d]thiazol-6-ylsulfonyl)-1′,4′-dihydro-2H,2′H-[3,3′-diazetidinylidene]-1(4H)-yl)-3-hydroxy-2-(4-(1-methyl-1H-pyrazol-4-yl)phenyl)propan-1-one], 300 to 1000 nM. For `Cc1nc2ccc(S(=O)(=O)N3CC(=C4CN(C(=O)[C@H](CO)c5ccccc5)C4)C3)cc2s1` [Compound 35, (S)-3-hydroxy-1-(1′-((2-methylbenzo[d]thiazol-6-yl)sulfonyl)-1′,4′-dihydro-2H,2′H-[3,3′-diazetidinylidene]-1(4H)-yl)-2-phenylpropan-1-one], the half-maximal activity concentration (AC50) was < 100 nM. Consider `O=C(C(CO)c1ccc(F)cc1)N1CC(=C2CN(S(=O)(=O)c3ccc4c(c3)OC(F)(F)O4)C2)C1` (stereo not drawn) [Compound 36, 1-(1′-((2,2-difluorobenzo[d][1,3]dioxolan-5-yl)sulfonyl)-1′,4′-dihydro-2H,2′H-[3,3′-diazetidinylidene]-1(4H)-yl)-2-(4-fluorophenyl)-3-hydroxypropan-1-one], for which the AC50 lay in the range of 300 to 1000 nM. To `O=C(N1CC(=C2CN(S(=O)(=O)c3ccc(OC(F)F)cc3)C2)C1)C1(c2ccccc2)CCOC1` (stereo not drawn) [Compound 37, (1′-((4-(difluoromethoxy)phenyl)sulfonyl)-1′,4′-dihydro-2H,2′H-[3,3′-diazetidinylidene]-1(4H)-yl)(3-phenyltetrahydrofuran-3-yl)methanone] belongs < 100 nM; to `CNCC(C(=O)N1CC(=C2CN(S(=O)(=O)c3ccc4ncsc4c3)C2)C1)c1ccc(F)c(Cl)c1` (stereo not drawn) [Compound 38, 1-(1′-(benzo[d]thiazol-6-ylsulfonyl)-1′,4′-dihydro-2H,2′H-[3,3′-diazetidinylidene]-1(4H)-yl)-2-(3-chloro-4-fluorophenyl)-3-(methylamino)propan-1-one], 300 to 1000 nM. To `CN1CCOc2ccc(S(=O)(=O)N3CC(=C4CN(C(=O)[C@H](CO)c5ccccc5)C4)C3)cc21` [Compound 39, (S)-3-hydroxy-1-(1′-((4-methyl-3,4-dihydro-2H-benzo[b][1,4]oxazin-6-yl)sulfonyl)-1′,4′-dihydro-2H,2′H-[3,3′-diazetidinylidene]-1(4H)-yl)-2-phenylpropan-1-one] belongs < 100 nM; to `O=C1COc2ccc(S(=O)(=O)N3CC(=C4CN(C(=O)[C@H](CO)c5ccccc5)C4)C3)cc2N1` [Compound 40, (S)-6-((1′-(3-hydroxy-2-phenylpropionyl)-1′,4′-dihydro-2H,2′H-[3,3′-diazetidinylidene]-1(4H)-yl)sulfonyl)-2H-benzo[b][1,4]oxazine-3(4H)-one], 101 to 300 nM.

What is called AC50 is the midpoint of the concentration-response curve, whichever way the signal moves.
